Here are results for 23 molecules from US10501479B2, “Benzenesulfonyl-asymmetric ureas and medical uses thereof” (HELSINN HEALTHCARE SA, priority 2016, dated 2019).

Where two headings read alike, the source gives them in different places.

Holding throughout (assay type): cell-based
In experiment [1] the target is T1, GHSR-1a (HEK293/GHSR1a cell line) (Homo sapiens, UniProt Q92847).
T1 construct: expressed in transfected cells; host or cells: HEK293/GHSR1a cell line
The experiment can be described thus: Ghrelin agonist potency (EC50) with calcium FLIPR assay. How it is done:
Evaluation of Ghrelin Agonist (EC50) and Antagonist Potency (IC50) with Calcium FLIPR Assay:
The intracellular calcium assay was carried out in a 384-well format FLIPR™ (Molecular Device) HEK293/GHSR1a cell line. Cells were seeded 24 hr prior to the experiments at an optimal density per well. Preincubation with selected calcium dye lasted for 30-60 min at room temperature or 37° C. Test compounds, dissolved in DMSO, were added at the appropriate time and incubated for 15 min followed by the addition of ghrelin with FlexStation or FLIPR. Relative fluorescence was monitored by the FLIPR™ Molecular Device. EC50 and IC50 values were estimated from dose-response data using GraphPad Prism software. To check for GHSR-1a agonism, the compound was added at t=20 sec. and the calcium response was followed for 2 minutes. To check for GHSR-1a antagonism, the compound and Ghrelin (10 nM) were added to the cells at t=20 sec. and the calcium response was measured for 2 minutes. The potency of the antagonist was calculated by its ability to reduce the ghrelin response. Dose-response curves were made for relevant antagonists.

For experiment [2], the target named is T1, GHSR-1a (HEK293/GHSR1a cell line). Description: Ghrelin antagonist potency (IC50) with calcium FLIPR assay, ghrelin 10 nM. The procedure, abridged:
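Cells seeded 24 h before the run were loaded with calcium dye for 30-60 min at room temperature or 37° C. For agonism, compound was added at t=20 sec and the calcium signal followed for 2 minutes. For antagonism, compound plus ghrelin (10 nM) went on at t=20 sec, and IC50 reflected the drop in ghrelin response.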

For experiment [3], the target named is T2, recombinant human ghrelin receptor (HEK293/GRLN) (Homo sapiens, UniProt Q92847).
T2 construct: expressed in transfected cells
The experiment can be described thus: Ghrelin inverse agonist potency (EC50) with IP-1 (IP-One HTRF) assay. Conditions: IP-1 assay. In a few lines:
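HEK293/GRLN cells were seeded 18-22 hours before the test, then exposed to compound in stimulation buffer for 1 hour at 37° C, 5% CO2. IP-1 was detected by IP-One HTRF (IP1-d2 plus Tb-cryptate, 1 hour RT), reading 620 and 665 nm; the inverse agonist EC50 was derived from this.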

Setting [4] is: HEK293/GHSR1a, read-out: Activity EC50/EMax: EC50 (ghrelin agonist potency).
[5] abbreviates: HEK293/GHSR1a, ghrelin 10 nM, read-out: Activity IC50 (ghrelin antagonist potency).
Setting [6] is: HEK293/GRLN, read-out: Activity EC50 (ghrelin inverse agonist potency).
The mark [7] stands for this setting: ghrelin agonist potency, read-out: Activity EC50/EMax.
Where [8] appears, read: ghrelin antagonist potency, read-out: Activity IC50.
[9] abbreviates: ghrelin inverse agonist potency, read-out: Activity EC50.

As usually defined, the IC50 is the concentration at which inhibition is half-maximal.

T2 sequence (Q92847 whole entry): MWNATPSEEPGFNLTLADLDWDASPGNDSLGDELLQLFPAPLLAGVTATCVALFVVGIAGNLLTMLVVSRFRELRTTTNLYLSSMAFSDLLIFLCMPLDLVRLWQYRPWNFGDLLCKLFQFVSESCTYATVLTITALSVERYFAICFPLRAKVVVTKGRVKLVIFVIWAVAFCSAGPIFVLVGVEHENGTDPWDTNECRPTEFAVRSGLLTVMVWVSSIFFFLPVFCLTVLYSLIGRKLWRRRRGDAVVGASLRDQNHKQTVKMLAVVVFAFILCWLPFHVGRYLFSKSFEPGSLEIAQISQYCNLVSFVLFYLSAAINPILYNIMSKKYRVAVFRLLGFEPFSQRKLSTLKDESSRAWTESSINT
T1 sequence (Q92847 whole entry): as above

With `CC(NC(=O)Nc1ccc(S(=O)(=O)Cc2ccc3c(c2)CNC3)cc1F)c1ccccc1` (stereo not drawn) [H1316, 1-(2-fluoro-4-((isoindolin-5-ylmethyl)sulfonyl)phenyl)-3-(1-phenylethyl)urea], the EC50 was above 30 µM in experiment [1] (setting [4]) and 11.6 nM in experiment [3] (setting [6]). Further, the IC50 in experiment [2] (setting [5]) came to 30.9 nM.

For the molecule `C[C@@H](NC(=O)Nc1ccc(S(=O)(=O)Cc2ccc(C3CCCN3)cc2)cc1)c1ccccc1` (stereo partly drawn) [H1332, 1-((R)-1-phenylethyl)-3-(4-((4-(pyrrolidin-2-yl)benzyl)sulfonyl)phenyl)urea], the figures for the EC50 in experiment [1] (setting [4]) and in experiment [3] (setting [6]) were above 30 µM and 42.1 nM, respectively. The half-maximal inhibitory concentration (IC50) in experiment [2] (setting [5]) was found to be 73.2 nM.

`CC(NC(=O)Nc1ccc(S(=O)(=O)Cc2ccc3c(c2)CNC3)cc1-c1cnn(C)c1)c1ccccc1` (stereo not drawn) [H1535, 1-(4-((isoindolin-5-ylmethyl)sulfonyl)-2-(1-methyl-1H-pyrazol-4-yl)phenyl)-3-(1-phenylethyl)urea]: the EC50 in experiment [1] (setting [7]) is above 30 µM; in experiment [3] (setting [9]), 21.4 nM. The IC50 in experiment [2] (setting [8]) was determined as 493 nM.

In the case of `COc1cc(S(=O)(=O)Cc2ccc3c(c2)CCN(C)C3)ccc1NC(=O)NC(C)c1c(F)cccc1F` (stereo not drawn) [H1436, 1-(1-(2,6-difluorophenyl)ethyl)-3-(2-methoxy-4-(((2-methyl-1,2,3,4-tetrahydroisoquinolin-6-yl)methyl)sulfonyl)phenyl)urea], the figures for the EC50 in experiment [1] (setting [4]) and in experiment [3] (setting [6]) were above 30 µM and 4.3 nM, respectively. The IC50 in experiment [2] (setting [5]) is 19.5 nM.

In the case of `CC(NC(=O)Nc1ccc(S(=O)(=O)CC2CCCN(C(C)C)C2)cc1)c1cccc(Cl)c1Cl` (stereo not drawn) [H1376, 1-(1-(2,3-dichlorophenyl)ethyl)-3-(4-(((1-isopropylpiperidin-3-yl)methyl)sulfonyl)phenyl)urea], the results for the EC50 in experiment [1] (setting [4]) and in experiment [3] (setting [6]) were above 30 µM and 631 nM, respectively. Besides, the IC50 in experiment [2] (setting [5]) came to 6890 nM.

For the molecule `C[C@@H](NC(=O)Nc1ccc(S(=O)(=O)Cc2csc3c2CN(C)C3)cc1)c1ccccc1` [H1351, (R)-1-(4-(((5-methyl-5,6-dihydro-4H-thieno[2,3-c]pyrrol-3-yl)methyl)sulfonyl)phenyl)-3-(1-phenylethyl)urea], the EC50 in experiment [1] (setting [4]) is above 30 µM; in experiment [3] (setting [6]) it was 6960 nM. In addition, the half-maximal inhibitory concentration (IC50) in experiment [2] (setting [5]) stood at 3450 nM.

With `CC(NC(=O)Nc1ccc(S(=O)(=O)Cc2ccc3c(c2)CNC3)cc1)c1ccncc1` (stereo not drawn) [H1274, 1-(4-((isoindolin-5-ylmethyl)sulfonyl)phenyl)-3-(1-(pyridin-4-yl)ethyl)urea], the EC50 in experiment [1] (setting [4]) is above 30 µM; in experiment [3] (setting [6]), 685 nM. The IC50 in experiment [2] (setting [5]) turned out to be 1580 nM.

In the case of `COc1cccc(OC)c1C(C)NC(=O)Nc1ccc(S(=O)(=O)Cc2ccc3c(c2)CN(C)C3)cc1` (stereo not drawn) [H1451, 1-(1-(2,6-dimethoxyphenyl)ethyl)-3-(4-(((2-methylisoindolin-5-yl)methyl)sulfonyl)phenyl)urea], the results for the EC50 in experiment [1] (setting [4]) and in experiment [3] (setting [6]) were above 30 µM and 33.3 nM, respectively. Further, the IC50 in experiment [2] (setting [5]) was found to be 68.5 nM.

On to `COc1ccc(C(C)NC(=O)Nc2ccc(S(=O)(=O)Cc3ccc4c(c3)CCN(C)C4)cc2OC)cc1` (stereo not drawn) [H1442, 1-(2-methoxy-4-(((2-methyl-1,2,3,4-tetrahydroisoquinolin-6-yl)methyl)sulfonyl)phenyl)-3-(1-(4-methoxyphenyl)ethyl)urea], for which the EC50 is above 30 µM in experiment [1] (setting [4]) and 16.4 nM in experiment [3] (setting [6]). Moreover, the IC50 in experiment [2] (setting [5]) stood at 58.1 nM.

As for `CC(c1ccccc1)N(C)C(=O)Nc1ccc(S(=O)(=O)Cc2ccc3c(c2)CNC3)cc1O` (stereo not drawn) [H1460, 3-(2-hydroxy-4-((isoindolin-5-ylmethyl)sulfonyl)phenyl)-1-methyl-1-(1-phenylethyl)urea], the EC50 is above 30 µM in experiment [1] (setting [7]) and 163 nM in experiment [3] (setting [9]). In experiment [2] (setting [8]), the IC50 worked out at 536 nM.

As for `CC(NC(=O)Nc1ccc(S(=O)(=O)Cc2ccc3c(c2)C(F)(F)CN(C)C3)cc1)c1ccccc1` (stereo not drawn) [H1546, 1-(4-(((4,4-difluoro-2-methyl-1,2,3,4-tetrahydroisoquinolin-6-yl)methyl)sulfonyl)phenyl)-3-(1-phenylethyl)urea], the figures for the EC50 in experiment [1] (setting [7]) and in experiment [3] (setting [9]) were above 30 µM and 126 nM, respectively. Moreover, the IC50 in experiment [2] (setting [8]) turned out to be 1080 nM.

Take `CC(=O)Oc1ccc(C(C)NC(=O)Nc2ccc(S(=O)(=O)Cc3ccc4c(c3)CNC4)cc2)cc1` (stereo not drawn) [H1310, 4-(1-(3-(4-((isoindolin-5-ylmethyl)sulfonyl)phenyl)ureido)ethyl)phenylacetate]: the figures for the EC50 in experiment [1] (setting [4]) and in experiment [3] (setting [6]) were above 30 µM and 184 nM, respectively. In experiment [2] (setting [5]), the half-inhibitory concentration (IC50) turned out to be 262 nM.

With `COc1ccc(CNC(=O)Nc2ccc(S(=O)(=O)Cc3ccc4c(c3)CN(C)C4)cc2)cc1Cl` [H1478, 1-(3-chloro-4-methoxybenzyl)-3-(4-(((2-methylisoindolin-5-yl)methyl)sulfonyl)phenyl)urea], the results for the EC50 in experiment [1] (setting [7]) and in experiment [3] (setting [9]) were above 30 µM and 19.6 nM, respectively. Also, in experiment [2] (setting [8]), the IC50 came to 40.3 nM.

As to `COC(=O)c1cc(S(=O)(=O)Cc2ccc3c(c2)CN(C)C3)ccc1NC(=O)NC(C)c1ccccc1` (stereo not drawn) [H1466, methyl 5-(((2-methylisoindolin-5-yl)methyl)sulfonyl)-2-(3-(1-phenylethyl)ureido)benzoate], the EC50 in experiment [1] (setting [7]) was above 30 µM; in experiment [3] (setting [9]), 16.8 nM. Besides, the IC50 in experiment [2] (setting [8]) stood at 72.4 nM.

`COc1cc2c(cc1CS(=O)(=O)c1ccc(NC(=O)NC(C)c3cccc(Cl)c3Cl)cc1)CCN(C)C2` (stereo not drawn) [H1368, 1-(1-(2,3-dichlorophenyl)ethyl)-3-(4-(((7-methoxy-2-methyl-1,2,3,4-tetrahydroisoquinolin-6-yl)methyl)sulfonyl)phenyl)urea]: the EC50 is above 30 µM in experiment [1] (setting [4]) and 2.8 nM in experiment [3] (setting [6]). Also, in experiment [2] (setting [5]), the IC50 is 20.3 nM.

`CC(NC(=O)Nc1ccc(S(=O)(=O)Cc2cc3c(s2)CNC3)cc1)c1ccccc1` (stereo not drawn) [H1320, 1-(4-(((5,6-dihydro-4H-thieno[2,3-c]pyrrol-2-yl)methyl)sulfonyl)phenyl)-3-(1-phenylethyl)urea]: the EC50 in experiment [1] (setting [4]) was above 30 µM; in experiment [3] (setting [6]), 43.3 nM. In addition, in experiment [2] (setting [5]), the IC50 worked out at 58.4 nM.

As to `C[C@H](NC(=O)Nc1ccc(S(=O)(=O)Nc2ccc3c(c2)CCN(C)C3)cc1)c1cccc(Cl)c1Cl` [H1352, (S)-4-(3-(1-(2,3-dichlorophenyl)ethyl)ureido)-N-(2-methyl-1,2,3,4-tetrahydroisoquinolin-6-yl)benzenesulfonamide], the EC50 in experiment [1] (setting [4]) is above 30 µM; in experiment [3] (setting [6]), 7.7 nM. Also, the half-maximal inhibitory concentration (IC50) in experiment [2] (setting [5]) was 4.6 nM.

As to `CN1Cc2ccc(CS(=O)(=O)c3ccc(NC(=O)NC4CNc5ccccc54)cc3)cc2C1` (stereo not drawn) [H1358, 1-(indolin-3-yl)-3-(4-(((2-methylisoindolin-5-yl)methyl)sulfonyl)phenyl)urea], the EC50 in experiment [1] (setting [4]) was above 30 µM; in experiment [3] (setting [6]), 1820 nM. The 50% inhibitory concentration (IC50) in experiment [2] (setting [5]) was 1880 nM.

As for `CC(NC(=O)Nc1ccc(S(=O)(=O)Cc2ccc3c(c2)CN(C)C3)cc1CO)c1ccccc1` (stereo not drawn) [H1468, 1-(2-(hydroxymethyl)-4-(((2-methylisoindolin-5-yl)methyl)sulfonyl)phenyl)-3-(1-phenylethyl)urea], the EC50 in experiment [1] (setting [7]) is above 30 µM; in experiment [3] (setting [9]), 18.2 nM. Moreover, the IC50 in experiment [2] (setting [8]) amounted to 80.6 nM.

For `COc1ccc(C(C)NC(=O)Nc2ccc(S(=O)(=O)Cc3ccc4c(c3)CNC4)cc2)cc1OC` (stereo not drawn) [H1444, 1-(1-(3,4-dimethoxyphenyl)ethyl)-3-(4-((isoindolin-5-ylmethyl)sulfonyl)phenyl)urea], the EC50 is above 30 µM in experiment [1] (setting [4]) and 185 nM in experiment [3] (setting [6]). In experiment [2] (setting [5]), the IC50 is 2860 nM.

Turning to `COc1cc(S(=O)(=O)Cc2ccc3c(c2)CC(C)NC3)ccc1NC(=O)N(O)C(C)c1ccccc1` (stereo not drawn) [H1524, 1-hydroxy-3-(2-methoxy-4-(((3-methyl-1,2,3,4-tetrahydroisoquinolin-6-yl)methyl)sulfonyl)phenyl)-1-(1-phenylethyl)urea], the values for the EC50 in experiment [1] (setting [7]) and in experiment [3] (setting [9]) were above 30 µM and 12.6 nM, respectively. Also, the IC50 in experiment [2] (setting [8]) came out at 9.77 nM.

As for `CC(NC(=O)Nc1ccc(S(=O)(=O)Cc2ccc3c(c2)CN(CC#N)C3)cc1)c1ccccc1` (stereo not drawn) [H1339, 1-(4-(((2-(cyanomethyl)isoindolin-5-yl)methyl)sulfonyl)phenyl)-3-(1-phenylethyl)urea], the values for the EC50 in experiment [1] (setting [4]) and in experiment [3] (setting [6]) were above 30 µM and 176 nM, respectively. Besides, the IC50 in experiment [2] (setting [5]) stood at 309 nM.

Regarding `CC(NC(=O)Nc1ccc(C(=O)Nc2ccc3c(c2)CNC3)cc1)c1ccccc1` (stereo not drawn) [H1479, N-(isoindolin-5-yl)-4-(3-(1-phenylethyl)ureido)benzamide], the EC50 is above 30 µM in experiment [1] (setting [7]) and 1950 nM in experiment [3] (setting [9]). Also, the IC50 in experiment [2] (setting [8]) came to 2500 nM.
